The values below come from patent US20250034106A1, “3-CYCLOAMINO-INDOLE COMPOUNDS AS SEROTONERGIC AGENTS USEFUL FOR THE TREATMENT OF DISORDERS RELATED THERETO” (Mindset Pharma Inc., priority 2021, published 2025).

Read-outs that look alike come from different tables or passages of the source. A value given as a limit tells only on which side of the number the result lay.

The conditions of experiment [1]: DMT and 5-MeO-DMT consumed parenterally; cited from earlier work.
The conditions of experiment [2]: cited from earlier work.
Experiment [3] has as its target human 5-HT2A (h5-HT2A) receptor (Homo sapiens (Human), UniProt P28223). In words: FLIPR assay, human 5-HT2A, agonist mode. It counts as cell-based. Conditions: FLIPR calcium assay. How it is done: 4. […] Vortexed vigorously for 1-2 minutes.
8. 3×compound in assay buffer was prepared: a. Reference compounds were diluted to required concentration with DMSO. […] Serial dilutions were performed; c.
ii. Calculated the percentage activation by using following equation:
% Activation=(RFU compound−RFU low control)/(RFU top concentration of reference agonist−RFU low control)×100%

Experiment [4] addresses T1, human 5-HT2A (Homo sapiens (Human), UniProt P28223). In words: Human 5-HT2A radioligand binding assay ([3H]-ketanserin). Conditions: competition with [3H]-ketanserin; read-out: h5-HT2A IC50.
In experiment [5] the target is T1, human 5-HT2A. Conditions: cited from earlier work.

Take `CN(C)CCc1c[nH]c2cccc(OP(=O)(O)O)c12` [psilocybin, 4-phosphoryloxy-N,N-dimethyltrypatmine]: the “duration of action / effects” value in experiment [1] is 5 to 8 h. The abstinence rate in experiment [2] (12 months follow-up) was 67%; in experiment [2] (six months follow-up), 80%. Turning to `[2H]c1[nH]c2c([2H])c([2H])c([2H])c([2H])c2c1C1CCNCC1` [Compound 1-1, 3-(piperidin-4-yl)-1H-indole-2,4,5,6,7-d5], in experiment [3], the half-maximal effective concentration (EC50) (usually the concentration giving half of the maximal effect) was 1 to 10 µM. For the same compound, the IC50 – broadly, the concentration at which inhibition is half-maximal – in experiment [4] is 0.5 to 10 µM. On to `[2H]C1([2H])CC(c2c[nH]c3ccc(OC)cc23)C([2H])([2H])N1C` (stereo not drawn) [Compound 1-54, 5-Methoxy-3-(1-methylpyrrolidin-3-yl-2,2,5,5-d4)-1H-indole], for which the IC50 in experiment [4] was in the range of 0.5 to 10 µM. `[2H]c1[nH]c2c([2H])c([2H])c([2H])c([2H])c2c1C1CCN(C)C1` (stereo not drawn) [Compound 1-32, 3-(1-Methylpyrrolidin-3-yl)-1H-indole-2,4,5,6,7-d5]: the EC50 in experiment [3] was over 10 µM. The IC50 in experiment [4] is under 0.5 µM. On to `COc1ccc2[nH]cc(CCN(C)C)c2c1` [Compound 5-MeO-DMT, 5-methoxy-N,N-dimethyltryptamine], for which the “duration of action / effects” value in experiment [1] is recorded as “less than 1 h”. In the case of `[2H]C([2H])([2H])N1CCC(c2c[nH]c3ccccc23)C1` (stereo not drawn) [Compound 1-48], the IC50 in experiment [4] fell in the range of 0.5 to 10 µM. `CN(C)CCc1c[nH]c2ccccc12` [DMT, N,N-dimethyltryptamine]: the “duration of action / effects” value in experiment [1] was “less than 1 h”. Further, the “binding affinity 5-HT2A” value in experiment [5] is reported as 0.237 µM. Also, in experiment [4], the 50% inhibitory concentration (IC50) is under 0.5 µM. Take `[2H]c1[nH]c2c([2H])c([2H])c([2H])c([2H])c2c1C1CC([2H])([2H])N(C)C1([2H])[2H]` (stereo not drawn) [Compound 1-44, 3-(1-Methylpyrrolidin-3-yl-2,2,5,5-d4)-1H-indole-2,4,5,6,7-d5]: the 50% effective concentration (EC50) in experiment [3] is over 10 µM. Further, in experiment [4], the half-maximal inhibitory concentration (IC50) was under 0.5 µM.
